Measured values taken from patent US7893252B2, “Selectively depolymerized galactomannan polysaccharide” (priority 2003, dated 2011).
“Also recorded” adds a separate entry of the source.

What was measured:
mice = test: Acute toxicology, single IV dose in mice; type: in vivo; conditions: single IV dose; galactomannan (336 mg/m2), 112 mg/kg (336 mg/m2); combination 417/222 mg/kg (1251/666 mg/m2); n=5/group
Experimental: Acute toxicology studies of the galactomannan of the present invention were performed in mice, rats and dogs and subchronic toxicology studies were performed in rats and dogs. The following is a summary of the findings of these studies: […]

[1] = test system: COLO 205 human colon tumor xenografts; test: Efficacy and compatibility with leucovorin in COLO 205 human colon tumor xenografts, q4d×4 (Example 4)
Experimental: The principal differences with the study described in Example 3 were that (a) the galactomannan was from another source, of a different size (molecular weight) and with a different Man/Gal ratio, (b) there were four consecutive injections, not three, (c) there were four doses of the galactomannan tested, not one, (d) 5-FU was administered (i.v.) in 48 mg/kg/dose, not 75 mg/kg/dose, as in the first study, and (e) galactomannan (i.v. injection) was compared with leucovorin (oral gavage, administered two hours after 5-FU) in terms of efficacy and toxicity. […] 5-FU alone was administered i.v. on the same q4d×4 treatment schedule at dosages of 48 mg/kg/dose. 5-FU was formulated in saline fresh on each day of treatment at a concentration of 4.8 mg/mL, at pH 9.2. […] Leucovorin powder (clinical formulation, Leucovorin calcium for injection) was reconstituted with water for injection to yield a concentration of 10 mg/mL. On each day of treatment the stock solution was diluted with water for injection to yield a concentration of 2.5 mg/mL.
Two more combination-treatment groups were also included in the study. One group of mice was treated with 5-FU (48 mg/kg/dose, i.v., q4d×4), followed by oral gavage (p.o.) with leucovorin, administered two hours after 5-FU at a dosage of 25 mg/kg/dose. Another two groups of mice were treated with 5-FU in a combination with the galactomannan (48 mg/kg/dose and 120 mg/kg/dose, respectively, i.v., q4d×4), followed by p.o. leucovorin treatment, administered at a dosage of 25 mg/kg/dose two hours after 5-FU plus the galactomannan.
There were a total of nine groups of 10 animals each, s.c.-implanted with COLO 205 human colon tumor xenografts.

[2] = test system: Salmonella typhimurium strains TA97a, TA98, TA100, TA1535 and Escherichia coli strain WP2 uvrA (pKM101); test: Ames bacterial reverse mutation assays; type: cell-based; conditions: in the presence and absence of an exogenous metabolic activation system
Experimental: Mutagenicity studies were conducted and included two Ames bacterial reverse mutation assays in which the galactomannan of the invention was evaluated by itself in the first study and combined with 5-FU in the second study. The test articles in both studies were evaluated in bacterial assays using Salmonella typhimurium strains TA97a, TA98, TA100, TA1535 and Escherichia coli strain WP2 uvrA (pKM101), both in the presence and absence of an exogenous metabolic activation system.

beagle dogs = test: 28-day canine study (Example 9); type: in vivo; conditions: galactomannan at 500 mg/m2, daily IV for four consecutive days
Experimental: In a 28-day canine study, single daily IV doses of saline, 6 mg/kg (120 mg/m2) 5-FU and ([…] (240 mg/m2) galactomannan or 4/2 mg/kg (80/40 mg/m2), 6/3.2 mg/kg (120/64 mg/m2) or 6/6 mg/kg (120/120 mg/m2) 5-FU/galactomannan were injected for four consecutive days to six groups of beagle dogs Mortality occurred in 13 of 48 dogs (five moribund sacrifices and eight found dead) between Study Days 2 and 5 (4/4 males on 5-FU; 3/4 males in the 4/2 mg/kg 5-FU/galactomannan group; 2/4 males and 1/4 females in the 6/3.2 and 6/6 mg/kg 5-FU/galactomannan groups, respectively).
Adverse effects in 5-FU groups included ataxia, prostration, vocalization, convulsions, tremors, hypersensitivity to touch, aggressive behavior (resulting in only three doses being given to the 6/3.2 5-FU/galactomanna group), emesis, salivation, soft stools and decreased red cell parameters and platelet counts. […] At the day 5 necropsy, treatment-related histological changes were largely limited to the 5-FU females. At day 29 necropsy, there were no remarkable changes in the survivors.

rats = test: Acute toxicology, single IV dose in rats; type: in vivo
Experimental: (§1) Acute toxicology studies of the galactomannan of the present invention were performed in mice, rats and dogs and subchronic toxicology studies were performed in rats and dogs. The following is a summary of the findings of these studies:
In rats (n=5/sex/group), single IV doses of 140 mg/kg (840 mg/m2) 5-FU, 72 mg/kg (432 mg/m2) galactomannan or 140/72 mg/kg of the combination produced no deaths in any of the groups.
Toxic changes in body weight, feed consumption, and hematology were less severe in the rats injected with the combination, versus those injected with 5-FU alone.

dogs = test: Acute toxicology, single IV injection in dogs; type: in vivo; conditions: 5-FU 28.5 mg/kg, galactomannan 15 mg/kg, combination 28.5/15 mg/kg
Experimental: as §1
The surviving dogs remained clinically normal and had no treatment-related changes in body weight, feed consumption, ECG tracings, clinical pathology or gross tissue changes during the 21-day study period.

[3] = i.v. q4d×4, 5-FU 48 mg/kg/dose, GM 120 mg/kg/dose

Question: Which results are given for “(((1,4)-linked β-D-mannopyranose)17-((1,6)-linked-β-D-galactopyranose)10)12) [GM]”?
Answer: clinical signs of toxicity, death or decreased weight gain (mice): no clinical signs of toxicity, death or decreased weight gain; tumor growth delay / tumor regression after 13 days ([1]; GM 120 mg/kg/dose alone, q4d×4): did not delay growth; also recorded: No tumor regression; median to quadrupling of tumor volume [1, 3]: 6.9 days; median tumor volume after 13 days [1, 3]: 1152 mm3; mutagenic activity ([2]; listed as galactomannan): not mutagenic; mutagenic activity ([2]; listed as galactomannan of the invention): No evidence of mutagenic activity; adverse effects (beagle dogs): no observed adverse effects; deaths (rats; 5-FU 140 mg/kg, galactomannan 72 mg/kg, combination 140/72 mg/kg, n=5/sex/group): no deaths; untoward effects (rats; galactomannan 72 mg/kg (432 mg/m2) alone): no significant untoward effects; death (dogs): 0/2
